# Experimental data published in patent US12516026B2, “Cabozantinib compositions and methods of use” (priority 2023, dated 2026).
# Tests used:
# [1] = Example 25: impurity profile of cabozantinib lauryl sulfate lots stored at 40° C. and 75% relative humidity; assay type: physicochemical; conditions: 40° C./75% RH
# [2] = single dose, healthy human subjects, cited from earlier work
molecule,measurement,setting,value
"CCCCCCCCCCCCOS(=O)(=O)O.COc1cc2nccc(Oc3ccc(NC(=O)C4(C(=O)Nc5ccc(F)cc5)CC4)cc3)c2cc1OC [Example 25C, cabozantinib lauryl sulfate]",Related Substance 1 Int2-Imp1,[1]; 0 months,0.10%
same,Related Substance 1 Int3-Imp5,[1]; 0 months,0.05%
same,Related Substance 1 Int3-Imp7,[1]; 0 months,<0.05%
same,Related Substance 1 Total imp.,[1]; 0 months,0.24%
same,Related Substance 1 Unidentified imp,[1]; 0 months,<0.05%
same,Related Substance 2 Int1,[1]; 0 months,5.22 ppm
same,Water Content,[1]; 0 months,0.31%
same,Related Substance 1 Int2-Imp1,[1]; 1 month,0.11%
same,Related Substance 1 Int3-Imp5,[1]; 1 month,<0.05%
same,Related Substance 1 Int3-Imp7,[1]; 1 month,0.05%
same,Related Substance 1 Total imp.,[1]; 1 month,0.24%
same,Related Substance 1 Unidentified imp,[1]; 1 month,<0.05%
same,Related Substance 2 Int1,[1]; 1 month,5.98 ppm
same,Water Content,[1]; 1 month,0.29%
same,Related Substance 1 Int2-Imp1,[1]; 2 months,0.13%
same,Related Substance 1 Int3-Imp5,[1]; 2 months,<0.05%
same,Related Substance 1 Int3-Imp7,[1]; 2 months,<0.05%
same,Related Substance 1 Total imp.,[1]; 2 months,0.21%
same,Related Substance 2 Int1,[1]; 2 months,6.07 ppm
same,Water Content,[1]; 2 months,0.068%
same,Related Substance 1 Int2-Imp1,[1]; 3 months,0.13%
same,Related Substance 1 Int3-Imp5,[1]; 3 months,<0.05%
same,Related Substance 1 Int3-Imp7,[1]; 3 months,<0.05%
same,Related Substance 1 Total imp.,[1]; 3 months,0.29%
same,Related Substance 1 Unidentified imp,[1]; 3 months,<0.05%
same,Related Substance 2 Int1,[1]; 3 months,6.99 ppm
same,Water Content,[1]; 3 months,0.05%
"CCCCCCCCCCCCOS(=O)(=O)O.COc1cc2nccc(Oc3ccc(NC(=O)C4(C(=O)Nc5ccc(F)cc5)CC4)cc3)c2cc1OC [Example 25B, cabozantinib lauryl sulfate]",Related Substance 1 Int2-Imp1,[1]; 0 months,0.12%
same,Related Substance 1 Int3-Imp5,[1]; 0 months,<0.05%
same,Related Substance 1 Total imp.,[1]; 0 months,0.20%
same,Related Substance 1 Unidentified imp,[1]; 0 months,0.06%
same,Related Substance 2 Int1,[1]; 0 months,2.77 ppm
same,Water Content,[1]; 0 months,0.19%
same,Related Substance 1 Int2-Imp1,[1]; 1 month,0.07%
same,Related Substance 1 Int3-Imp5,[1]; 1 month,<0.05%
same,Related Substance 1 Total imp.,[1]; 1 month,0.09%
same,Related Substance 2 Int1,[1]; 1 month,6.28 ppm
same,Related Substance 1 Int2-Imp1,[1]; 3 months,0.06%
same,Related Substance 1 Int3-Imp2,[1]; 3 months,<0.05%
same,Related Substance 1 Int3-Imp5,[1]; 3 months,<0.05%
same,Related Substance 1 Total imp.,[1]; 3 months,0.11%
same,Related Substance 2 Int1,[1]; 3 months,6.50 ppm
same,Water Content,[1]; 3 months,0.10%
same,Related Substance 1 Int2-Imp1,[1]; 6 months,0.10%
same,Related Substance 1 Int3-Imp5,[1]; 6 months,<0.05%
same,Related Substance 1 Int3-Imp7,[1]; 6 months,<0.05%
same,Related Substance 1 Total imp.,[1]; 6 months,0.10%
same,Related Substance 1 Unidentified imp,[1]; 6 months,<0.05%
same,Related Substance 2 Int1,[1]; 6 months,7.34 ppm
^14C-cabozantinib,radioactivity recovered in feces,[2]; 48-day collection period,approximately 54%
same,radioactivity recovered in urine,[2]; 48-day collection period,~27%
same,total administered radioactivity recovered,[2]; within a 48-day collection period,approximately 81%
